According to DBAASP:
Values after ≈ are worked out from the molar mass of the structure shown. Blank lines part the entries; values can stand above or below the compound they belong to.

What was measured:
Assay in all cases: ≥ marks a high value that may be exact or a test limit, other limits are often not marked, values filed in µg/mL are converted to µM
[1] = tested on: Escherichia coli ATCC 11229
[2] = tested on: Staphylococcus aureus ATCC 25923
[3] = tested on: Staphylococcus aureus ATCC 29213
[4] = tested on: Staphylococcus aureus ATCC 33591
Escherichia coli W3110 = tested on: Escherichia coli W3110
[5] = tested on: Klebsiella pneumoniae ATCC BAA-1705
[6] = tested on: Escherichia coli ATCC 25922
[7] = tested on: Pseudomonas aeruginosa 21328
[8] = tested on: Pseudomonas aeruginosa 25349
[9] = tested on: Pseudomonas aeruginosa CICC 10419
[10] = tested on: Pseudomonas aeruginosa CICC 11411
[11] = tested on: Pseudomonas aeruginosa CICC 11421
[12] = tested on: Pseudomonas aeruginosa CICC 11431
[13] = tested on: Pseudomonas aeruginosa CICC 21625
[14] = tested on: Pseudomonas aeruginosa CICC 21630
[15] = tested on: Bacillus megaterium ATCC 10778
[16] = tested on: Bacillus subtilis ATCC 6633
Candida albicans MDM8 = tested on: Candida albicans MDM8
[17] = tested on: Candida tropicalis IOC 4560
[18] = tested on: Enterobacter cloacae beta-12
Escherichia coli SBS 363 = tested on: Escherichia coli SBS 363
Micrococcus luteus A270 = tested on: Micrococcus luteus A270
[19] = tested on: Pseudomonas aeruginosa NCIB 10421
[20] = tested on: Serratia marcescens ATCC 4112
[21] = tested on: Pseudomonas aeruginosa ATCC 27853
[22] = tested on: Acinetobacter baumannii ATCC 17978
[23] = tested on: Escherichia coli NCTC 12923
[24] = tested on: Klebsiella pneumoniae NCTC 13368
[25] = tested on: Pseudomonas aeruginosa NCTC 13437
[26] = tested on: Pseudomonas aeruginosa PAO1
[27] = tested on: Staphylococcus aureus ATCC 9144
[28] = tested on: Staphylococcus aureus USA 300
Escherichia coli UB1005 = tested on: Escherichia coli UB1005
[29] = tested on: Lacticaseibacillus rhamnosus 1.0385
[30] = tested on: Lacticaseibacillus rhamnosus 1.0386
[31] = tested on: Lacticaseibacillus rhamnosus 1.0911
[32] = tested on: Lacticaseibacillus rhamnosus 1.0925
[33] = tested on: Lacticaseibacillus rhamnosus 7469
[34] = tested on: Lactiplantibacillus plantarum 8014
[35] = tested on: Staphylococcus aureus ATCC 43300
[36] = tested on: Staphylococcus epidermidis ATCC 12228

Structure (SMILES): CC[C@H](C)[C@H](N)C(=O)N[C@@H](CC(C)C)C(=O)NCC(=O)N[C@@H](CCCCN)C(=O)N[C@H](C(=O)N[C@@H](Cc1c[nH]c2ccccc12)C(=O)N[C@@H](CCC(=O)O)C(=O)N1CCC[C@H]1C(=O)N[C@H](C(=O)N[C@@H](CCCCN)C(=O)N[C@@H](CO)C(=O)N[C@@H](CC(C)C)C(=O)N[C@@H](Cc1ccccc1)C(N)=O)[C@@H](C)CC)[C@@H](C)CC [ILGKIWEPIKSLF]
MIC [15]: 3.13 µM (≈ 4.83 µg/mL)
MIC [16]: 25 µM (≈ 38.6 µg/mL)
MIC (Candida albicans MDM8): ≥ 50 µM
MIC [17]: 12.5 µM (≈ 19.3 µg/mL)
MIC [18]: ≥ 50 µM
MIC (Escherichia coli SBS 363): ≥ 50 µM
MIC (Micrococcus luteus A270): 12.5 µM (≈ 19.3 µg/mL)
MIC [19]: ≥ 50 µM
MIC [20]: 3.13 µM (≈ 4.83 µg/mL)
MIC [3]: 50 µM (≈ 77.1 µg/mL)

Structure (SMILES): CC[C@H](C)[C@H](NC(=O)[C@H](CCCCN)NC(=O)[C@H](CCC(=O)O)NC(=O)[C@H](Cc1c[nH]c2ccccc12)NC(=O)[C@H](Cc1ccccc1)NC(=O)[C@H](CCCCN)NC(=O)CNC(=O)[C@H](CC(C)C)NC(=O)[C@H](C)N)C(=O)N[C@@H](CCCCN)C(=O)N[C@@H](CO)C(=O)N[C@@H](CC(C)C)C(=O)N[C@@H](Cc1ccccc1)C(N)=O [ALGKFWEKIKSLF]
MIC [22]: 2.55 µM (≈ 4 µg/mL)
MIC [15]: 0.78 µM (≈ 1.22 µg/mL)
MIC [16]: 0.78 µM (≈ 1.22 µg/mL)
MIC (Candida albicans MDM8): 3.13 µM (≈ 4.9 µg/mL)
MIC [17]: 0.78 µM (≈ 1.22 µg/mL)
MIC [18]: 6.25 µM (≈ 9.79 µg/mL)
MIC [23]: 5.11 µM (≈ 8 µg/mL)
MIC (Escherichia coli SBS 363): 1.56 µM (≈ 2.44 µg/mL)
MIC [24]: 10.2 µM (≈ 16 µg/mL)
MIC (Micrococcus luteus A270): 0.78 µM (≈ 1.22 µg/mL)
MIC [19]: 12.5 µM (≈ 19.6 µg/mL)
MIC [25]: ≥ 40.8 µM
MIC [26]: > 81.7 µM
MIC [20]: 0.36 µM (≈ 0.564 µg/mL)
MIC [3]: 3.13 µM (≈ 4.9 µg/mL)
MIC [27]: 2.55 µM (≈ 4 µg/mL)
MIC [28]: 10.2 µM (≈ 16 µg/mL)

Structure (SMILES): C[C@@H](O)[C@H](NC(=O)[C@H](Cc1c[nH]c2ccccc12)NC(=O)[C@H](Cc1c[nH]c2ccccc12)NC(=O)[C@H](Cc1c[nH]c2ccccc12)NC(=O)[C@@H](NC(=O)[C@H](Cc1c[nH]c2ccccc12)NC(=O)[C@H](CCCN=C(N)N)NC(=O)[C@@H](N)CCCN=C(N)N)[C@@H](C)O)C(=O)N[C@@H](Cc1c[nH]c2ccccc12)C(=O)N[C@@H](CCCN=C(N)N)C(=O)N[C@@H](CCCN=C(N)N)C(N)=O [RRWTWWWTWRR]
MIC (Escherichia coli UB1005): 2 µM (≈ 3.55 µg/mL)
MIC [29]: ≥ 64 µM
MIC [30]: ≥ 64 µM
MIC [31]: ≥ 64 µM
MIC [32]: ≥ 64 µM
MIC [33]: ≥ 64 µM
MIC [34]: ≥ 64 µM
MIC [21]: 4 µM (≈ 7.1 µg/mL)
MIC [35]: 4 µM (≈ 7.1 µg/mL)
MIC [36]: 2 µM (≈ 3.55 µg/mL)

Structure (SMILES): NC(=O)[C@H](CCCN=C(N)N)NC(=O)[C@H](CCCN=C(N)N)NC(=O)[C@H](Cc1c[nH]c2ccccc12)NC(=O)[C@H](CS)NC(=O)[C@H](Cc1c[nH]c2ccccc12)NC(=O)[C@H](Cc1c[nH]c2ccccc12)NC(=O)[C@H](Cc1c[nH]c2ccccc12)NC(=O)[C@H](CS)NC(=O)[C@H](Cc1c[nH]c2ccccc12)NC(=O)[C@H](CCCN=C(N)N)NC(=O)[C@@H](N)CCCN=C(N)N [RRWCWWWCWRR]
MIC [6]: > 64 µM
MIC (Escherichia coli UB1005): 16 µM (≈ 28.5 µg/mL)
MIC [29]: ≥ 64 µM
MIC [30]: 16 µM (≈ 28.5 µg/mL)
MIC [31]: ≥ 64 µM
MIC [32]: ≥ 64 µM
MIC [33]: ≥ 64 µM
MIC [34]: 8 µM (≈ 14.2 µg/mL)
MIC [21]: 8 µM (≈ 14.2 µg/mL)
MIC [3]: 8 µM (≈ 14.2 µg/mL)
MIC [35]: 4 µM (≈ 7.12 µg/mL)
MIC [36]: 8 µM (≈ 14.2 µg/mL)

Continued, values first:

MIC [1]: ≥ 36 µM
MIC [2]: 36 µM (≈ 64 µg/mL)
MIC [3]: 36 µM (≈ 64 µg/mL)
MIC [4]: ≥ 36 µM
Structure (SMILES): CC[C@H](C)[C@H](NC(=O)[C@H](CCCN=C(N)N)NC(=O)[C@H](CCSC)NC(=O)[C@H](C)NC(=O)[C@H](CCCN=C(N)N)NC(=O)CNC(=O)[C@H](C)NC(=O)[C@@H](NC(=O)[C@@H](N)CO)C(C)C)C(=O)NCC(=O)N[C@@H](CC(C)C)C(=O)N[C@@H](CCCN=C(N)N)C(=O)N[C@@H](Cc1ccccc1)C(=O)N[C@H](C(=O)N[C@@H](CC(C)C)C(=O)N[C@@H](CCSC)C(=O)O)C(C)C [SVAGRAMRIGLRFVLM]

MIC (Escherichia coli W3110): 1 µM (≈ 2.26 µg/mL)
MIC [5]: ≥ 64 µM
Structure (SMILES): CC[C@H](C)[C@H](NC(=O)[C@H](CCCCN)NC(=O)[C@H](CCCCN)NC(=O)[C@H](Cc1ccc(O)cc1)NC(=O)[C@H](CCCCN)NC(=O)[C@H](CC(C)C)NC(=O)[C@H](CC(C)C)NC(=O)[C@H](CCCCN)NC(=O)[C@H](CC(C)C)NC(=O)CNC(=O)[C@H](Cc1c[nH]c2ccccc12)NC(=O)[C@H](CS)NC(=O)[C@H](C)NC(=O)[C@H](Cc1c[nH]c2ccccc12)NC(=O)[C@H](CCCN=C(N)N)NC(=O)[C@@H](N)Cc1c[nH]c2ccccc12)C(=O)N[C@@H](Cc1ccc(O)cc1)C(=O)O [WRWACWGLKLLKYKKIY]

MIC [6]: 1.54 µM (≈ 4 µg/mL)
MIC [7]: 1.54 µM (≈ 4 µg/mL)
MIC [8]: 1.54 µM (≈ 4 µg/mL)
MIC [9]: 3.09 µM (≈ 8 µg/mL)
MIC [10]: 1.54 µM (≈ 4 µg/mL)
MIC [11]: 3.09 µM (≈ 8 µg/mL)
MIC [12]: 1.54 µM (≈ 4 µg/mL)
MIC [13]: 3.09 µM (≈ 8 µg/mL)
MIC [14]: 1.54 µM (≈ 4 µg/mL)
MIC [3]: 3.09 µM (≈ 8 µg/mL)
Structure (SMILES): CC(C)C[C@H](NC(=O)[C@H](CCCN=C(N)N)NC(=O)[C@H](CCCN=C(N)N)NC(=O)[C@H](CC(C)C)NC(=O)[C@H](CCCN=C(N)N)NC(=O)[C@H](CCCN=C(N)N)NC(=O)[C@H](CCCN=C(N)N)NC(=O)[C@H](Cc1c[nH]c2ccccc12)NC(=O)[C@H](Cc1c[nH]c2ccccc12)NC(=O)[C@H](Cc1c[nH]c2ccccc12)NC(=O)[C@H](CCCN=C(N)N)NC(=O)[C@H](CCCN=C(N)N)NC(=O)[C@H](CCCN=C(N)N)NC(=O)[C@H](CC(C)C)NC(=O)[C@H](CCCN=C(N)N)NC(=O)[C@H](CCCN=C(N)N)NC(=O)[C@@H](N)CC(C)C)C(N)=O [LRRLRRRWWWRRRLRRL]

MIC [6]: 7.21 µM (≈ 16 µg/mL)
MIC [7]: 14.4 µM (≈ 32 µg/mL)
MIC [8]: 3.61 µM (≈ 8 µg/mL)
MIC [21]: 7.21 µM (≈ 16 µg/mL)
MIC [9]: 14.4 µM (≈ 32 µg/mL)
MIC [10]: 14.4 µM (≈ 32 µg/mL)
MIC [11]: 14.4 µM (≈ 32 µg/mL)
MIC [12]: 7.21 µM (≈ 16 µg/mL)
MIC [13]: 7.21 µM (≈ 16 µg/mL)
MIC [14]: 7.21 µM (≈ 16 µg/mL)
MIC [3]: 7.21 µM (≈ 16 µg/mL)
Structure (SMILES): CC(C)C[C@H](NC(=O)[C@H](CCCN=C(N)N)NC(=O)[C@H](CCCN=C(N)N)NC(=O)[C@H](CC(C)C)NC(=O)[C@H](CCCN=C(N)N)NC(=O)[C@H](CCCN=C(N)N)NC(=O)[C@H](CCCN=C(N)N)NC(=O)[C@H](Cc1c[nH]c2ccccc12)NC(=O)[C@H](CCCN=C(N)N)NC(=O)[C@H](CCCN=C(N)N)NC(=O)[C@H](CCCN=C(N)N)NC(=O)[C@H](CC(C)C)NC(=O)[C@H](CCCN=C(N)N)NC(=O)[C@H](CCCN=C(N)N)NC(=O)[C@@H](N)CC(C)C)C(N)=O [LRRLRRRWRRRLRRL]
